Source: patent publication US11306087B2, “Inhibitors of KRAS G12C and methods of using the same” (Amgen Inc., priority 2017, dated 2022)
Values belong to the compound of their own block, whether it stands above or below them.

Tests used:
[1] = biological target: GDP-bound KRAS protein (aa 1-169), containing both G12C and C118A amino acid substitutions (Homo sapiens (Human), UniProt P01116, C118A/G12C); experiment: Coupled Nucleotide Exchange Assay; type: biochemical; conditions: 5 min compound pre-incubation; inhibition of SOS-mediated nucleotide exchange; AlphaScreen
GDP-bound KRAS protein (aa 1-169), containing both G12C and C118A amino acid substitutions, sequence (P01116 other isoform, or with tags, fused parts or gaps G12C/C118A): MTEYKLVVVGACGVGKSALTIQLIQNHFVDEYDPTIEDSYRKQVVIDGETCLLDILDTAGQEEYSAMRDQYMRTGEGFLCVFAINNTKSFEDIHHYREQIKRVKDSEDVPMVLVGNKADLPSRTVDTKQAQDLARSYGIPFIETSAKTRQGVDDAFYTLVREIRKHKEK
Experimental: For compounds in Table 2, the following assay conditions were employed: Coupled Nucleotide Exchange Assay: Purified GDP-bound KRAS protein (aa 1-169), containing both G12C and C118A amino acid substitutions and an N-terminal His-tag, was pre-incubated with a compound dose-response titration for 5 min in assay buffer (25 mM HEPES pH 7.4, 10 mM MgCl2, and 0.01% Triton X-100). Following compound pre-incubation, purified SOS protein (aa 564-1049) and GTP (Roche 10106399001) were added to the assay wells and incubated for an additional 30 min. To determine the extent of inhibition of SOS-mediated nucleotide exchange, purified GST-tagged cRAF (aa 1-149), nickel chelate AlphaLISA acceptor beads (PerkinElmer AL108R), and AlphaScreen glutathione donor beads (PerkinElmer 6765302) were added to the assay wells and incubated for 5 minutes. The assay plates were then read on a PerkinElmer EnVision Multilabel Reader, using AlphaScreen® technology, and data were analyzed using a 4-parameter logistic model to calculate IC50 values.

[2] = tested on: Phosphorylation of ERK1/2 in MIA PaCa-2 cells; experiment: Phospho-ERK1/2 MSD Assay; type: cell-based; conditions: Homo sapiens, 2 hours compound treatment, 10 ng/mL EGF for 10 min, read-out: p-ERK IC50 (MIA PaCa-2)
Experimental: Phospho-ERK1/2 MSD Assay: MIA PaCa-2 (ATCC® CRL-1420™) and A549 (ATCC® CCL-185™) cells were cultured in RPMI 1640 Medium (ThermoFisher Scientific 11875093) containing 10% fetal bovine serum (ThermoFisher Scientific 16000044) and 1× penicillin-streptomycin-glutamine (ThermoFisher Scientific 10378016). Sixteen hours prior to compound treatment, MIA PaCa-2 or A549 cells were seeded in 96-well cell culture plates at a density of 25,000 cells/well and incubated at 37° C., 5% CO2. A compound dose-response titration was diluted in growth media, added to appropriate wells of a cell culture plate, and then incubated at 37° C., 5% CO2 for 2 hours. Following compound treatment, cells were stimulated with 10 ng/mL EGF (Roche 11376454001) for 10 min, washed with ice-cold Dulbecco's phosphate-buffered saline, no Ca^2+ or Mg^2+ (ThermoFisher Scientific 14190144), and then lysed in RIPA buffer (50 mM Tris-HCl pH 7.5, 1% Igepal, 0.5% sodium deoxycholate, 150 mM NaCl, and 0.5% sodium dodecyl sulfate) containing protease inhibitors (Roche 4693132001) and phosphatase inhibitors (Roche 4906837001). Phosphorylation of ERK1/2 in compound-treated lysates was assayed using Phospho-ERK1/2 Whole Cell Lysate kits (Meso Scale Discovery K151DWD) according to the manufacturer's protocol. Assay plates were read on a Meso Scale Discovery Sector Imager 6000, and data were analyzed using a 4-parameter logistic model to calculate IC50 values.

SMILES: C=CC(=O)N1[C@H](C)CN(c2nc(=O)n(-c3c(C(C)C)ncnc3C(C)C)c3nc(-c4c(O)cccc4F)c(Cl)cc23)C[C@@H]1C [Example 20, 4-(4-Acryloyl-cis-3,5-dimethylpiperazin-1-yl)-6-chloro-1-(4,6-diisopropylpyrimidin-5-yl)-7-(2-fluoro-6-hydroxyphenyl)pyrido[2,3-d]pyrimidin-2(1H)-one]
IC50 [1]: 0.034 µM | IC50 [2]: 0.022 µM

SMILES: C=CC(=O)N1C[C@H](C)N(c2nc(=O)n(-c3c(C)ccnc3C(C)C)c3nc(-c4c(O)cccc4F)c(F)cc23)C[C@H]1C [Example 5, 4-((2S,5R,M)-4-Acryloyl-2,5-dimethylpiperazin-1-yl)-6-fluoro-7-(2-fluoro-6-hydroxyphenyl)-1-(2-isopropyl-4-methylpyridin-3-yl)pyrido[2,3-d]pyrimidin-2(1H)-one]
IC50 [1]: 0.079 µM | IC50 [2]: 0.046 µM

SMILES: C=CC(=O)N1[C@H](C)CN(c2nc(=O)n(-c3c(C)ccnc3C(C)C)c3nc(-c4c(N)cccc4F)c(F)cc23)C[C@@H]1C (atropisomer, axis not shown; (M)) [Example 18, (M)-4-(4-Acryloyl-cis-3,5-dimethylpiperazin-1-yl)-7-(2-amino-6-fluorophenyl)-6-fluoro-1-(2-isopropyl-4-methylpyridin-3-yl)pyrido[2,3-d]pyrimidin-2(1H)-one]
IC50 [1]: 0.069 µM | IC50 [2]: 0.075 µM

SMILES: C=CC(=O)N1C[C@H](C)N(c2nc(=O)n(-c3c(C)ccnc3C(C)C)c3nc(-c4c(O)cccc4F)c(Cl)cc23)C[C@H]1C [Example 2, 4-((2S,5R,M)-4-Acryloyl-2,5-dimethylpiperazin-1-yl)-6-chloro-7-(2-fluoro-6-hydroxyphenyl)-1-(2-isopropyl-4-methylpyridin-3-yl)pyrido[2,3-d]pyrimidin-2(1H)-one]
IC50 [1]: 0.027 µM | IC50 [2]: 0.016 µM

SMILES: C=CC(=O)N1[C@H](C)CN(c2nc(=O)n(-c3c(C(C)C)ncnc3C(C)C)c3nc(-c4ccccc4F)c(F)cc23)C[C@@H]1C [Example 22, 4-(4-Acryloyl-cis-3,5-dimethylpiperazin-1-yl)-1-(4,6-diisopropylpyrimidin-5-yl)-6-fluoro-7-(2-fluorophenyl)pyrido[2,3-d]pyrimidin-2(1H)-one]
IC50 [1]: 0.56 µM

SMILES: C=CC(=O)N1[C@H](C)CN(c2nc(=O)n(-c3c(C)ccnc3C(C)C)c3nc(-c4c(O)cccc4F)c(F)cc23)C[C@@H]1C (atropisomer, axis not shown; (M)) [Example 17, (M)-4-(4-Acryloyl-cis-3,5-dimethylpiperazin-1-yl)-6-fluoro-7-(2-fluoro-6-hydroxyphenyl)-1-(2-isopropyl-4-methylpyridin-3-yl)pyrido[2,3-d]pyrimidin-2(1H)-one]
IC50 [1]: 0.117 µM | IC50 [2]: 0.105 µM

SMILES: C=CC(=O)N1[C@H](C)CN(c2nc(=O)n(-c3c(C(C)C)ncnc3C(C)C)c3nc(-c4c(N)cccc4F)c(Cl)cc23)C[C@@H]1C [Example 21, 4-(4-Acryloyl-cis-3,5-dimethylpiperazin-1-yl)-7-(2-amino-6-fluorophenyl)-6-chloro-1-(4,6-diisopropylpyrimidin-5-yl)pyrido[2,3-d]pyrimidin-2(1H)-one]
IC50 [1]: 0.092 µM | IC50 [2]: 0.036 µM

SMILES: C=CC(=O)N1C[C@H](C)N(c2nc(=O)n(-c3c(C)ccnc3C(C)C)c3nc(-c4ccccc4F)c(Cl)cc23)C[C@H]1C [Example 1, 4-((2S,5R,M)-4-Acryloyl-2,5-dimethylpiperazin-1-yl)-6-chloro-7-(2-fluorophenyl)-1-(2-isopropyl-4-methylpyridin-3-yl)pyrido[2,3-d]pyrimidin-2(1H)-one]
IC50 [1]: 0.04 µM | IC50 [2]: 0.026 µM

SMILES: C=CC(=O)N1[C@H](C)CN(c2nc(=O)n(-c3c(C)ccnc3C(C)C)c3nc(-c4ccccc4F)c(Cl)cc23)C[C@@H]1C (atropisomer, axis not shown; (M)) [Example 13, (M)-4-(4-Acryloyl-cis-3,5-dimethylpiperazin-1-yl)-6-chloro-7-(2-fluorophenyl)-1-(2-isopropyl-4-methylpyridin-3-yl)pyrido[2,3-d]pyrimidin-2(1H)-one]
IC50 [1]: 0.053 µM | IC50 [2]: 0.046 µM

SMILES: C=CC(=O)N1C[C@H](C)N(c2nc(=O)n(-c3c(C(C)C)ncnc3C(C)C)c3nc(-c4c(N)cccc4F)c(F)cc23)C[C@H]1C [Example 12, 4-((2S,5R)-4-Acryloyl-2,5-dimethylpiperazin-1-yl)-7-(2-amino-6-fluorophenyl)-1-(4,6-diisopropylpyrimidin-5-yl)-6-fluoropyrido[2,3-d]pyrimidin-2(1H)-one]
IC50 [1]: 0.214 µM | IC50 [2]: 0.088 µM

SMILES: C=CC(=O)N1[C@H](C)CN(c2nc(=O)n(-c3c(C(C)C)ncnc3C(C)C)c3nc(-c4c(N)cccc4F)c(F)cc23)C[C@@H]1C [Example 24, 4-(4-Acryloyl-cis-3,5-dimethylpiperazin-1-yl)-7-(2-amino-6-fluorophenyl)-1-(4,6-diisopropylpyrimidin-5-yl)-6-fluoropyrido[2,3-d]pyrimidin-2(1H)-one]
IC50 [1]: 0.396 µM

SMILES: C=CC(=O)N1C[C@H](C)N(c2nc(=O)n(-c3c(C)ccnc3C(C)C)c3nc(-c4c(N)cccc4F)c(Cl)cc23)C[C@H]1C [Example 3, 4-((2S,5R,M)-4-Acryloyl-2,5-dimethylpiperazin-1-yl)-7-(2-amino-6-fluorophenyl)-6-chloro-1-(2-isopropyl-4-methylpyridin-3-yl)pyrido[2,3-d]pyrimidin-2(1H)-one]
IC50 [1]: 0.013 µM | IC50 [2]: 0.009 µM

IC50 [2]: 0.015 µM
SMILES: C=CC(=O)N1[C@H](C)CN(c2nc(=O)n(-c3c(C)ccnc3C(C)C)c3nc(-c4c(N)cccc4F)c(Cl)cc23)C[C@@H]1C (atropisomer, axis not shown; (M)) [Example 15, (M)-4-(4-Acryloyl-cis-3,5-dimethylpiperazin-1-yl)-7-(2-amino-6-fluorophenyl)-6-chloro-1-(2-isopropyl-4-methylpyridin-3-yl)pyrido[2,3-d]pyrimidin-2(1H)-one]

SMILES: C=CC(=O)N1C[C@H](C)N(c2nc(=O)n(-c3c(C(C)C)ncnc3C(C)C)c3nc(-c4ccccc4F)c(Cl)cc23)C[C@H]1C [Example 7, 4-((2S,5R)-4-Acryloyl-2,5-dimethylpiperazin-1-yl)-6-chloro-1-(4,6-diisopropylpyrimidin-5-yl)-7-(2-fluorophenyl)pyrido[2,3-d]pyrimidin-2(1H)-one]
IC50 [1]: 0.049 µM | IC50 [2]: 0.026 µM

SMILES: C=CC(=O)N1C[C@H](C)N(c2nc(=O)n(-c3c(C)ccnc3C(C)C)c3nc(-c4c(N)cccc4F)c(F)cc23)C[C@H]1C [Example 6, 4-((2S,5R,M)-4-Acryloyl-2,5-dimethylpiperazin-1-yl)-7-(2-amino-6-fluorophenyl)-6-fluoro-1-(2-isopropyl-4-methylpyridin-3-yl)pyrido[2,3-d]pyrimidin-2(1H)-one]
IC50 [1]: 0.038 µM | IC50 [2]: 0.026 µM

SMILES: C=CC(=O)N1[C@H](C)CN(c2nc(=O)n(-c3c(C)ccnc3C(C)C)c3nc(-c4ccccc4F)c(F)cc23)C[C@@H]1C (atropisomer, axis not shown; (M)) [Example 16, (M)-4-(4-Acryloyl-cis-3,5-dimethylpiperazin-1-yl)-6-fluoro-7-(2-fluorophenyl)-1-(2-isopropyl-4-methylpyridin-3-yl)pyrido[2,3-d]pyrimidin-2(1H)-one]
IC50 [1]: 0.512 µM
